The text below walks through data of patent US11596639B2, “Substituted indole Mcl-1 inhibitors” (Vanderbilt University, priority 2016, dated 2023).

The subject of assay [1] is H929 human cancer cell lines. The assay can be described thus: Cellular viability / proliferation (Cell TiterGlo, 72 h). It counts as cell-based. A digest of the protocol: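 H929 cells plated at 1,000/well in 10% FBS medium received a 2-fold serial compound dilution (top 50 μM, DMSO <1%) 24 h later. After 72 h, viability was read by CellTiter-Glo luminescence. IC50 came from a four-parameter fit.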
(In general: ATP-based viability assays read luminescence as a measure of living cells.)

In another assay the target is Mcl-1 (Homo sapiens (Human), UniProt Q07820). The experiment in a line: TR-FRET binding assay, FITC-Bak peptide and MBP-tagged Mcl-1. To be noted: read-out: Ki for Inhibition of Mcl-1 by TR-FRET assay. On the procedure: Compounds are diluted in DMSO in a 16-point, semilog serial dilution scheme. […] The plate was mixed and incubated for 3 hours at room temperature. […] TR-FRET signal is plotted and IC50 and Ki values are calculated in the same manner as the fluorescence polarization anisotropy based competition assays.
Sequence of Mcl-1 (Q07820 172-327): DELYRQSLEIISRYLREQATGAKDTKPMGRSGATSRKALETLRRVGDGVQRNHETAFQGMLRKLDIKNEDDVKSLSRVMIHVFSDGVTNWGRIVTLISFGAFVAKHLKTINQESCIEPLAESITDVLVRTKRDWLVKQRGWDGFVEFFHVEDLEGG
For orientation: Time-resolved FRET reads energy transfer from a long-lived donor to a nearby acceptor.

The mark [2] stands for this setting: Homo sapiens, NCI-H929, 72 h, read-out: GI50 on cellular proliferation of H929 human cancer cell lines, H929 cells, 72 h, Cell TiterGlo, 10% FBS.

Like-named read-outs stand apart in the source and are kept apart here.

A word on the Ki: it is the dissociation constant of the complex between target and ligand, obtained from inhibition or displacement. With `Cc1cc(OCCCc2c3n(c4c(-c5c(C)nn(C)c5C)c(Cl)ccc24)[C@H](C)CN(c2cc(CN4CCN(C)CC4)cc4cc(C(=O)O)n(C)c24)C3=O)cc(C)c1Cl` [Example 544, (R)-7-(7-Chloro-10-(3-(4-chloro-3,5-dimethylphenoxy)propyl)-4-methyl-1-oxo-6-(1,3,5-trimethyl-1H-pyrazol-4-yl)-3,4-dihydropyrazino[1,2-a]indol-2(1H)-yl)-1-methyl-5-((4-methylpiperazin-1-yl)methyl)-1H-indole-2-carboxylic acid], in assay [1] (setting [2]), the GI50 was 0.32 µM. Further, the Ki on Mcl-1 is < 0.0002 µM.
Regarding `Cc1nn(C)c(C)c1-c1c(Cl)ccc2c(CCCOc3cccc4ccccc34)c3n(c12)[C@H](C)CN(c1cn(C)c2ccc(C(=O)O)cc12)C3=O` [Example 545, (R)-3-(7-Chloro-4-methyl-10-(3-(naphthalen-1-yloxy)propyl)-1-oxo-6-(1,3,5-trimethyl-1H-pyrazol-4-yl)-3,4-dihydropyrazino[1,2-a]indol-2(1H)-yl)-1-methyl-1H-indole-5-carboxylic acid], the GI50 in assay [1] (setting [2]) stood at 0.56 µM. The Ki at Mcl-1 stood at 0.00039 µM.
The corresponding values for `Cc1cc(OCCCc2c3n(c4c(-c5c(C)nn(C)c5C)c(Cl)ccc24)[C@H](C)CN(c2cn(CC(=O)N4CCN(C)CC4)c4ccc(-c5ncn(C)n5)cc24)C3=O)cc(C)c1Cl` [Example 546, (R)-7-Chloro-10-(3-(4-chloro-3,5-dimethylphenoxy)propyl)-4-methyl-2-(5-(1-methyl-1H-1,2,4-triazol-3-yl)-1-(2-(4-methylpiperazin-1-yl)-2-oxoethyl)-1H-indol-3-yl)-6-(1,3,5-trimethyl-1H-pyrazol-4-yl)-3,4-dihydropyrazino[1,2-a]indol-1(2H)-one] are 0.42 µM and 0.00038 µM.
The corresponding values for `COCCn1cc(N2C[C@@H](C)n3c(c(CCCOc4cc(C)c(Cl)c(C)c4)c4ccc(Cl)c(-c5c(C)nn(C)c5C)c43)C2=O)c2cc(-c3ncccn3)ccc21` [Example 548, (R)-7-Chloro-10-(3-(4-chloro-3,5-dimethylphenoxy)propyl)-2-(1-(2-methoxyethyl)-5-(pyrimidin-2-yl)-1H-indol-3-yl)-4-methyl-6-(1,3,5-trimethyl-1H-pyrazol-4-yl)-3,4-dihydropyrazino[1,2-a]indol-1(2H)-one] are 0.61 µM and 0.00094 µM.
The corresponding values for `Cc1cc(OCCCc2c3n(c4c(-c5c(C)nn(C)c5C)c(Cl)ccc24)[C@H](C)CN(c2cc(CN4CCOCC4)cc4c(C(=O)O)cn(C)c24)C3=O)cc(C)c1Cl` [Example 549, (R)-7-(7-chloro-10-(3-(4-chloro-3,5-dimethylphenoxy)propyl)-4-methyl-1-oxo-6-(1,3,5-trimethyl-1H-pyrazol-4-yl)-3,4-dihydropyrazino[1,2-a]indol-2(1H)-yl)-1-methyl-5-(morpholinomethyl)-1H-indole-3-carboxylic acid] are 0.34 µM and 0.00034 µM.
As to `Cc1cc(OCCCc2c3n(c4c(-c5c(C)nn(C)c5C)c(Cl)ccc24)[C@H](C)CN(c2cc(CN4CCCC4)cc4c(C(=O)O)cn(C)c24)C3=O)cc(C)c1Cl` [Example 550, (R)-7-(7-chloro-10-(3-(4-chloro-3,5-dimethylphenoxy)propyl)-4-methyl-t-oxo-6-(1,3,5-trimethyl-1H-pyrazol-4-yl)-3,4-dihydropyrazino[1,2-a]indol-2(1H)-yl)-1-methyl-5-(pyrrolidin-1-ylmethyl)-1H-indole-3-carboxylic acid], the GI50 in assay [1] (H929 cells, 72 h, Cell TiterGlo, 10% FBS, read-out: GI50 on cellular proliferation of H929 human cancer cell lines) was 1.2 µM. The Ki on Mcl-1 is 0.00052 µM.
Consider `CC(=O)N1CCN(c2ccnc(Cn3c(C(=O)O)cc4cc(C)cc(N5C[C@@H](C)n6c(c(CCCOc7cc(C)c(Cl)c(C)c7)c7ccc(Cl)c(-c8c(C)nn(C)c8C)c76)C5=O)c43)c2)CC1` [Example 552, (R)-1-((4-(4-acetylpiperazin-1-yl)pyridin-2-yl)methyl)-7-(7-chloro-10-(3-(4-chloro-3,5-dimethylphenoxy)propyl)-4-methyl-1-oxo-6-(1,3,5-trimethyl-1H-pyrazol-4-yl)-3,4-dihydropyrazino[1,2-a]indol-2(1H)-yl)-5-methyl-1H-indole-2-carboxylic acid], for which the GI50 in assay [1] (setting [2]) amounted to 4.6 µM. At Mcl-1, the Ki was < 0.0002 µM.
The corresponding values for `Cc1cc(N2C[C@@H](C)n3c(c(CCCOc4cc(C)c(Cl)c(C)c4)c4ccc(Cl)c(-c5c(C)nn(C)c5C)c43)C2=O)c2c(c1)cc(C(=O)O)n2Cc1cc(N2CCNCC2)ccn1` [Example 553, (R)-7-(7-chloro-10-(3-(4-chloro-3,5-dimethylphenoxy)propyl)-4-methyl-1-oxo-6-(1,3,5-trimethyl-1H-pyrazol-4-yl)-3,4-dihydropyrazino[1,2-a]indol-2(1H)-yl)-5-methyl-1-((4-(piperazin-1-yl)pyridin-2-yl)methyl)-1H-indole-2-carboxylic acid] are 2.8 µM and < 0.0002 µM.
The corresponding values for `Cc1cc(OCCCc2c3n(c4c(-c5c(C)nn(C)c5C)c(Cl)ccc24)[C@H](C)CN(c2cn(Cc4ccncc4)c4ccc(C(=O)O)cc24)C3=O)cc(C)c1Cl` [Example 555, (R)-3-(7-chloro-10-(3-(4-chloro-3,5-dimethylphenoxy)propyl)-4-methyl-1-oxo-6-(1,3,5-trimethyl-1H-pyrazol-4-yl)-3,4-dihydropyrazino[1,2-a]indol-2(1H)-yl)-1-(pyridin-4-ylmethyl)-1H-indole-5-carboxylic acid] are 1.3 µM and 0.00026 µM.
For `Cc1cc(N2C[C@@H](C)n3c(c(CCCOc4cc(C)c(Cl)c(C)c4)c4ccc(Cl)c(-c5c(C)nn(C)c5C)c43)C2=O)c2c(c1)cc(C(=O)O)n2Cc1cc(C#N)ccn1` [Example 556, (R)-7-(7-chloro-10-(3-(4-chloro-3,5-dimethylphenoxy)propyl)-4-methyl-1-oxo-6-(1,3,5-trimethyl-1H-pyrazol-4-yl)-3,4-dihydropyrazino[1,2-a]indol-2(1H)-yl)-1-((4-cyanopyridin-2-yl)methyl)-5-methyl-1H-indole-2-carboxylic acid], in assay [1] (setting [2]), the GI50 stood at 0.28 µM. In addition, on Mcl-1, the Ki is < 0.0002 µM.
For `Cc1cc(N2C[C@@H](C)n3c(c(CCCOc4cc(C)c(Cl)c(C)c4)c4ccc(Cl)c(-c5c(C)nn(C)c5C)c43)C2=O)c2c(c1)cc(C(=O)O)n2Cc1cccc(C#N)n1` [Example 557, (R)-7-(7-chloro-10-(3-(4-chloro-3,5-dimethylphenoxy)propyl)-4-methyl-1-oxo-6-(1,3,5-trimethyl-1H-pyrazol-4-yl)-3,4-dihydropyrazino[1,2-a]indol-2(1H)-yl)-1-((6-cyanopyridin-2-yl)methyl)-5-methyl-1H-indole-2-carboxylic acid] the same measures were 0.82 µM and < 0.0002 µM.
For the compound `Cc1cc(OCCCc2c3n(c4c(-c5c(C)ncnc5C)c(Cl)ccc24)[C@H](C)CN(c2cc(OCCN4CCOCC4)cc4cc(C(=O)O)n(C)c24)C3=O)cc(C)c1Cl` [Example 558, (R)-7-(7-chloro-10-(3-(4-chloro-3,5-dimethylphenoxy)propyl)-6-(4,6-dimethylpyrimidin-5-yl)-4-methyl-1-oxo-3,4-dihydropyrazino[1,2-a]indol-2(1H)-yl)-1-methyl-5-(2-morpholinoethoxy)-1H-indole-2-carboxylic acid], in assay [1] (setting [2]), the GI50 turned out to be 0.31 µM. In addition, the Ki on Mcl-1 was < 0.0002 µM.
The corresponding values for `COCCn1cc(N2C[C@@H](C)n3c(c(CCCOc4cc(C)c(Cl)c(C)c4)c4ccc(Cl)c(-c5c(C)nc(CN6CCN(C)CC6)nc5C)c43)C2=O)c2cc(C(=O)O)ccc21` [Example 559, (R)-3-(7-chloro-10-(3-(4-chloro-3,5-dimethylphenoxy)propyl)-6-(4,6-dimethyl-2-((4-methylpiperazin-1-yl)methyl)pyrimidin-5-yl)-4-methyl-1-oxo-3,4-dihydropyrazino[1,2-a]indol-2(1H)-yl)-1-(2-methoxyethyl)-1H-indole-5-carboxylic acid] are 0.43 µM and < 0.0002 µM.
In the case of `Cc1cc(OCCCc2c3n(c4c(-c5c(C)nn(C)c5C)c(Cl)ccc24)[C@H](C)CN(c2cn(CC(=O)N(C)C)c4ccc(-c5ncn(C)n5)cc24)C3=O)cc(C)c1Cl` [Example 560, (R)-2-(3-(7-Chloro-10-(3-(4-chloro-3,5-dimethylphenoxy)propyl)-4-methyl-1-oxo-6-(1,3,5-trimethyl-1H-pyrazol-4-yl)-3,4-dihydropyrazino[1,2-a]indol-2(1H)-yl)-5-(1-methyl-1H-1,2,4-triazol-3-yl)-1H-indol-1-yl)-N,N-dimethylacetamide], in assay [1] (setting [2]), the GI50 was 0.27 µM. The inhibitory constant (Ki) on Mcl-1 stood at 0.00053 µM.
As for `Cc1cc(OCCCc2c3n(c4c(-c5c(C)nn(C)c5C)c(Cl)ccc24)[C@H](C)CN(c2cn(Cc4ccccn4)c4ccc(C(=O)O)cc24)C3=O)cc(C)c1Cl` [Example 561, (R)-3-(7-chloro-10-(3-(4-chloro-3,5-dimethylphenoxy)propyl)-4-methyl-1-oxo-6-(1,3,5-trimethyl-1H-pyrazol-4-yl)-3,4-dihydropyrazino[1,2-a]indol-2(1H)-yl)-1-(pyridin-2-ylmethyl)-1H-indole-5-carboxylic acid], the GI50 in assay [1] (setting [2]) amounted to 0.51 µM. For the same compound, the Ki at Mcl-1 was < 0.0002 µM.
For `Cc1cc(OCCCc2c3n(c4c(-c5c(C)nn(C)c5C)c(Cl)ccc24)[C@H](C)CN(c2cccc4c(C(=O)O)c5n(c24)CCN(C)C5=O)C3=O)cc(C)c1Cl` [Example 562, (R)-7-chloro-10-(3-(4-chloro-3,5-dimethylphenoxy)propyl)-2′,4-dimethyl-1,1′-dioxo-6-(1,3,5-trimethyl-1H-pyrazol-4-yl)-1′,2′,3,3′,4,4′-hexahydro-1H-[2,6′-bipyrazino[1,2-a]indole]-10′-carboxylic acid] the same measures were 1.2 µM and 0.00097 µM.
